Laboratory results reported in patent publication US8685924B2, “Preventives/remedies for stress urinary incontinence and method of screening the same” (Takeda Pharmaceutical Company Limited, priority 2004, dated 2014).

Test system: urethane-anesthetized female rats
Assay: Antagonism of the leak point pressure increase by WAY-161503 / WAY-163909, direct bladder compression method (Example 4)
Assay type: in vivo, rat
Conditions: agonist 0.3 mg/kg, i.v., antagonist: solvent, mean ± SEM
Description: SD female rats (body weight 180-350 g) were anesthetized with urethane (Wako Pure Chemical Industries, Ltd.), and halothane (Takeda Pharmaceutical Company Limited) anesthesia was added when necessary during operation.
The spinal cord was transected at T8-9 level to eliminate the reflex voiding. The lower abdomen was incised in the median line, a catheter for intravesical pressure measurement (PE-90, Clay Adams) was inserted into the bladder and secured with a ligature, and the intravesical pressure was measured via a pressure transducer. Urine was emptized in advance by bilaterally pressing the bladder with two swabs, and a 0.1% Evans blue (Merck) solution (0.4 mL) was injected into the bladder. The bladder was gradually compressed bilaterally with two swabs, and the intravesical pressure upon saline leakage from the urethral orifice was measured and defined as a leak point pressure. The measurement of the leak point pressure was repeated, and the average value of the final five stable measures was taken as the value before drug administration. Thereafter, the drug was intravenously administered, the leak point pressure was measured again 20 min later, and the value after the drug administration was determined. DOI, mCPP and eltoprazine were dissolved in saline, and other drugs were dissolved in DMA/PEG400 (1:1), and intravenously administered at 1 ml/kg and 0.5 mg/kg, respectively. Depending on the experiment, RS-102221 or SB221284 (showing serotonin 5-HT2C receptor antagonist activity) was administered, 5 min later, WAY-161503 or WAY-163909 was administered, leak point pressure was measured 10 min later, and a competitive assay with the action of WAY-161503 or WAY-163909 was performed. RS-102221 and SB221284 were both dissolved in DMA/PEG400 (1:1), and intravenously administered at 0.5 ml/kg.

In the case of `O=C1Nc2cc(Cl)c(Cl)cc2N2CCNCC12` (stereo not drawn) [WAY-161503], the “leak point pressure after drug administration” value is reported as 87.1 ± 4.3 cmH2O, the “leak point pressure increase” value is reported as 17.4 ± 1.9 cmH2O and the “leak point pressure before drug administration” value (baseline) is reported as 69.7 ± 3.9 cmH2O.
